Patent publication US20080176813A1, “CARBOCYCLIC NUCLEOSIDES AND PROCESS FOR OBTAINING SUCH” (STICHTING REGA VZW, priority 1999, published 2008)
≈ marks a conversion by molar mass, not a printed value. Read-outs that look alike come from different tables or passages of the source.

Legend:
HSV-1 (F) = assay: Antiviral activity, virus-induced cytopathogenicity in E6SM cell cultures; format: cell-based; settings: Human alphaherpesvirus 1, read-out: Activity: minimum inhibitory concentration required to reduce virus-induced cytopathogenicity by 50% (IC50), E6SM cell cultures
Experimental: (§1) The anti-herpesvirus activity of D-cyclohexene G and L-cyclohexene G and the respective adenine analogues was determined in human embryonic skin muscle fibroblast (E6SM: HSV-1, HSV-2) and in human embryonic lung (HEL) cells [varicella-zoster virus (VZV), cytomegalovirus (CMV)] (Table I).

HSV-1 (KOS) = assay: as above; format: cell-based; settings: Human alphaherpesvirus 1, read-out: Activity: minimum inhibitory concentration required to reduce virus-induced cytopathogenicity by 50% (IC50), E6SM cell cultures
Experimental: as §1

HSV-1 (McIntyre) = assay: as above; format: cell-based; settings: Human alphaherpesvirus 1, read-out: Activity: minimum inhibitory concentration required to reduce virus-induced cytopathogenicity by 50% (IC50), E6SM cell cultures
Experimental: as §1

HSV-1 (TK−/TKf VMW1837) = assay: as above; format: cell-based; settings: Human alphaherpesvirus 1, E6SM, read-out: Activity: minimum inhibitory concentration required to reduce virus-induced cytopathogenicity by 50% (IC50)
Experimental: as §1

HSV-1 (TK−KOS ACVf) = assay: as above; format: cell-based; settings: Human alphaherpesvirus 1, E6SM, read-out: Activity: minimum inhibitory concentration required to reduce virus-induced cytopathogenicity by 50% (IC50)
Experimental: as §1

HSV-2 (196) = assay: as above; format: cell-based; settings: Human alphaherpesvirus 2, read-out: Activity: minimum inhibitory concentration required to reduce virus-induced cytopathogenicity by 50% (IC50), E6SM cell cultures
Experimental: as §1

HSV-2 (G) = assay: as above; format: cell-based; settings: Human alphaherpesvirus 2, read-out: Activity: minimum inhibitory concentration required to reduce virus-induced cytopathogenicity by 50% (IC50), E6SM cell cultures
Experimental: as §1

HSV-2 (Lyons) = assay: as above; format: cell-based; settings: Human alphaherpesvirus 2, read-out: Activity: minimum inhibitory concentration required to reduce virus-induced cytopathogenicity by 50% (IC50), E6SM cell cultures
Experimental: as §1

VZV (YS) = assay: Antiviral activity, virus plaque formation in HEL cells; format: cell-based, varicella-zoster virus
Experimental: as §1

VZV (OKA) = assay: microbe, parasite or virus in culture; format: cell-based, varicella-zoster virus; settings: Human alphaherpesvirus 3, HEL, read-out: Activity: inhibitory concentration required to reduce virus plaque formation by 50% (IC50)
Experimental: as §1

VZV (TK−07/1) = assay: microbe, parasite or virus in culture; format: cell-based, varicella-zoster virus; settings: Human alphaherpesvirus 3, HEL, read-out: Activity: inhibitory concentration required to reduce virus plaque formation by 50% (IC50)
Experimental: as §1

VZV (TK−YS/R) = assay: microbe, parasite or virus in culture; format: cell-based, varicella-zoster virus; settings: Human alphaherpesvirus 3, HEL, read-out: Activity: inhibitory concentration required to reduce virus plaque formation by 50% (IC50)
Experimental: as §1

HeLa = assay: Cytotoxicity, alteration of cell morphology; format: cell-based
Vero = assay: Cytotoxicity, alteration of cell morphology; format: cell-based
[1] = Cytotoxicity, alteration of cell morphology; settings: E8SM
Experimental: as §1

HEL [2] = assay: Cytotoxicity, HEL (footnote c not given); settings: HEL (footnote c, not defined)
Experimental: as §1

HEL [3] = assay: Cytotoxicity, cell growth; settings: HEL (footnote b)
CMV (AD 169) = assay: Antiviral activity, virus plaque formation in HEL cells; format: cell-based, cytomegalovirus; settings: Human betaherpesvirus 5, read-out: Activity: inhibitory concentration required to reduce virus plaque formation by 50% (IC50), HEL cells, virus input 20 PFU
Experimental: as §1

CMV (Davis) = assay: as above; format: cell-based, cytomegalovirus; settings: Human betaherpesvirus 5, read-out: Activity: inhibitory concentration required to reduce virus plaque formation by 50% (IC50), HEL cells, virus input 20 PFU
Experimental: as §1

Row | Structure (SMILES) | IC50 (HSV-1 (F)) | IC50 (HSV-1 (KOS)) | IC50 (HSV-1 (McIntyre)) | IC50 (HSV-1 (TK−/TKf VMW1837)) | IC50 (HSV-1 (TK−KOS ACVf)) | IC50 (HSV-2 (196)) | IC50 (HSV-2 (G)) | IC50 (HSV-2 (Lyons)) | IC50 (VZV (YS); Human alphaherpesvirus 3, read-out: Activity: inhibitory concentration required to reduce virus plaque formation by 50% (IC50), VZV (YS), HEL cells, virus input 20 PFU) | IC50 (VZV (YS); Human alphaherpesvirus 3, HEL, read-out: Activity: inhibitory concentration required to reduce virus plaque formation by 50% (IC50)) | IC50 (VZV (OKA)) | IC50 (VZV (TK−07/1)) | IC50 (VZV (TK−YS/R)) | Minimum cytotoxic concentration causing a microscopically detectable alteration of cell morphology (HeLa) | Minimum cytotoxic concentration causing a microscopically detectable alteration of cell morphology (Vero) | Minimum cytotoxic concentration causing a microscopically detectable alteration of cell morphology [1] | Cytotoxicity (concentration) (HEL [2]) | Cytotoxic concentration required to reduce cell growth by 50% (HEL [3]) | IC50 (CMV (AD 169)) | IC50 (CMV (Davis))
1 | Nc1nc2c(ncn2COCCO)c(=O)[nH]1 [Acyclovir, reference compound] | 0.003 µg/mL (≈ 0.0133 µM) | 0.01 µg/mL (≈ 0.0444 µM) | 0.005 µg/mL (≈ 0.0222 µM) | 0.07 µg/mL (≈ 0.311 µM) | 9.6 µg/mL (≈ 42.6 µM) | 0.02 µg/mL (≈ 0.0888 µM) | 0.02 µg/mL (≈ 0.0888 µM) | 0.02 µg/mL (≈ 0.0888 µM) | 1.1 µg/mL (≈ 4.88 µM) |  |  |  |  |  |  |  |  |  |  | 
2 | O=c1[nH]c(=O)n([C@H]2C[C@H](O)[C@@H](CO)O2)cc1/C=C/Br [Brivudin, reference compound] | 0.001 µg/mL (≈ 0.003 µM) | 0.001 µg/mL (≈ 0.003 µM) | 0.001 µg/mL (≈ 0.003 µM) | > 80 µg/mL | > 80 µg/mL | > 80 µg/mL | > 80 µg/mL | > 80 µg/mL |  | 0.03 µg/mL (≈ 0.0901 µM) | 0.003 µg/mL (≈ 0.00901 µM) | > 20 µg/mL | > 50 µg/mL | ≧400 μg/ml | ≧400 μg/ml | ≧400 μg/ml | >200 µg/mL | >50 µg/mL |  | 
3 | Nc1ccn(C[C@@H](CO)OCP(=O)(O)O)c(=O)n1 [Cidolovir, reference compound] |  |  |  |  |  |  |  |  |  |  |  |  |  |  |  |  | >50 µg/mL | >50 µg/mL | 0.08 µg/mL (≈ 0.287 µM) | 0.2 µg/mL (≈ 0.716 µM)
